According to article PMC11191095, “QSAR Reveals Decreased Lipophilicity of Polar Residues Determines the Selectivity of Antimicrobial Peptide Activity” (ACS Omega, 2024):
Where a SMILES comes first, the peptide text is derived from it.

Experiments:
Assay in all cases: microbe, parasite or virus in culture
P. aeruginosa NCTC 13437 = format: cell-based, Pseudomonas aeruginosa; conditions: P. aeruginosa NCTC 13437 (R)
In short: (§1)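 Peptides 128→2 μg/mL, 2-fold series; inoculum ~5 × 10^5 CFU/mL from overnight culture (OD600 0.01, mixed 1:1). MHB non-cation-adjusted for bacteria, RPMI 1640 + 2% glucose for fungi. 37 °C, 20 h, OD600. MIC50/MIC90 at 50%/90% inhibition; n ≥ 3.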

[1] = system: S. aureus (MRSA) NCTC 13616; format: cell-based, Staphylococcus aureus; conditions: S. aureus (MRSA) NCTC 13616 (R)
In short: as §1

S. aureus (MRSA) USA300 = format: cell-based, Staphylococcus aureus; conditions: S. aureus (MRSA) USA300 (R)
In short: as §1

[2] = system: S. aureus (MSSA) ATCC 9144; format: cell-based, Staphylococcus aureus; conditions: S. aureus (MSSA) ATCC 9144 (S)
In short: as §1

C. albicans NCPF 3281 = format: cell-based; conditions: C. albicans NCPF 3281
In short: as §1

[3] = system: C. parapsilosis NCPF 3209; format: cell-based; conditions: C. parapsilosis NCPF 3209
In short: as §1

C. glabrata NCPF 8018 = format: cell-based; conditions: C. glabrata NCPF 8018
In short: as §1

C. krusei NCPF 3876 = format: cell-based; conditions: C. krusei NCPF 3876
In short: as §1

C. tropicalis NCPF 8760 = format: cell-based; conditions: C. tropicalis NCPF 8760
In short: as §1

K. pneumoniae M6 = format: cell-based, Klebsiella pneumoniae; conditions: K. pneumoniae M6 (S)
In short: as §1

K. pneumoniae NCTC 13368 = format: cell-based, Klebsiella pneumoniae; conditions: K. pneumoniae NCTC 13368 (R)
In short: as §1

C. auris TDG 1912 = format: cell-based, Candida auris; conditions: C. auris TDG 1912
In short: as §1

A. baumannii AYE = format: cell-based, Acinetobacter baumannii; conditions: A. baumannii AYE (R)
In short: as §1

A. baumannii ATCC 17978 = format: cell-based, Acinetobacter baumannii; conditions: A. baumannii ATCC 17978 (S)
In short: as §1

E. coli NCTC 12923 = format: cell-based, Escherichia coli; conditions: E. coli NCTC 12923 (S)
In short: as §1

E. coli LEC001 = format: cell-based, Escherichia coli; conditions: E. coli LEC001 (R)
In short: as §1

[4] = MHB, 37 °C, 20 h, OD600, min. three biological repeats
[5] = 50% growth inhibition, RPMI 1640 + 2% glucose, 37 °C, 20 h
[6] = 90% growth inhibition, RPMI 1640 + 2% glucose, 37 °C, 20 h
[7] = MHB, ~5×10^5 CFU/mL, 37 °C, 20 h, OD600, min. three biological repeats

CC(C)C[C@H](NC(=O)[C@H](CCCCN)NC(=O)[C@H](CO)NC(=O)[C@H](CCCCN)NC(=O)[C@H](Cc1c[nH]c2ccccc12)NC(=O)[C@H](C)NC(=O)[C@H](CCCCN)NC(=O)[C@@H](N)CCCCN)C(=O)N[C@@H](C)C(=O)N[C@@H](CCCCN)C(=O)N[C@@H](CCCCN)C(=O)N[C@@H](CC(C)C)C(=O)N[C@@H](CCCNC(=N)N)C(=O)N[C@@H](C)C(=O)N[C@@H](CCCCN)C(=O)NCC(=O)N[C@@H](CCCCN)C(N)=O [PS-PB-14a] (H-KKAWKSKLAKKLRAKGK-NH2)
Modal MIC (P. aeruginosa NCTC 13437; [4]): > 128 µg/mL | Modal MIC (P. aeruginosa NCTC 13437; shown in µM): > 63.8 µM | Modal MIC [1, 4]: > 128 µg/mL | Modal MIC ([1]; shown in µM): > 63.8 µM | Modal MIC (S. aureus (MRSA) USA300; [4]): > 128 µg/mL | Modal MIC (S. aureus (MRSA) USA300; shown in µM): > 63.8 µM | Modal MIC [2, 4]: > 128 µg/mL | Modal MIC ([2]; shown in µM): > 63.8 µM | Modal MIC50 (C. albicans NCPF 3281; [5]): > 128 µg/mL | Modal MIC90 (C. albicans NCPF 3281; [6]): > 128 µg/mL | Modal MIC50 (C. albicans NCPF 3281; shown in µM): > 63.8 µM | Modal MIC90 (C. albicans NCPF 3281; shown in µM): > 63.8 µM | Modal MIC50 [3, 5]: > 128 µg/mL | Modal MIC90 [3, 6]: > 128 µg/mL | Modal MIC50 ([3]; shown in µM): > 63.8 µM | Modal MIC90 ([3]; shown in µM): > 63.8 µM | Modal MIC50 (C. glabrata NCPF 8018; [5]): > 128 µg/mL | Modal MIC90 (C. glabrata NCPF 8018; [6]): > 128 µg/mL | Modal MIC50 (C. glabrata NCPF 8018; shown in µM): > 63.8 µM | Modal MIC90 (C. glabrata NCPF 8018; shown in µM): > 63.8 µM | Modal MIC50 (C. krusei NCPF 3876; [5]): > 128 µg/mL | Modal MIC90 (C. krusei NCPF 3876; [6]): > 128 µg/mL | Modal MIC50 (C. krusei NCPF 3876; shown in µM): > 63.8 µM | Modal MIC90 (C. krusei NCPF 3876; shown in µM): > 63.8 µM | Modal MIC50 (C. tropicalis NCPF 8760; shown in µM): 31.9 µM | Modal MIC90 (C. tropicalis NCPF 8760; shown in µM): 31.9 µM | Modal MIC (K. pneumoniae M6; [4]): > 128 µg/mL | Modal MIC (K. pneumoniae M6; shown in µM): > 63.8 µM | Modal MIC (K. pneumoniae NCTC 13368; [4]): > 128 µg/mL | Modal MIC (K. pneumoniae NCTC 13368; shown in µM): > 63.8 µM | Modal MIC50 (C. auris TDG 1912; 50% growth inhibition, RPMI 1640 + 2% glucose, 37 °C, 20 h, OD600): > 128 µg/mL | Modal MIC90 (C. auris TDG 1912; 90% growth inhibition, RPMI 1640 + 2% glucose, 37 °C, 20 h, OD600): > 128 µg/mL | Modal MIC50 (C. auris TDG 1912; shown in µM): > 63.8 µM | Modal MIC90 (C. auris TDG 1912; shown in µM): > 63.8 µM | Modal MIC (A. baumannii AYE; [4]): > 128 µg/mL | Modal MIC (A. baumannii AYE; shown in µM): > 63.8 µM | Modal MIC (A. baumannii ATCC 17978; [4]): > 128 µg/mL | Modal MIC (A. baumannii ATCC 17978; shown in µM): > 63.8 µM | Modal MIC (E. coli NCTC 12923; [7]): > 128 µg/mL | Modal MIC (E. coli NCTC 12923; shown in µM): > 63.8 µM | Modal MIC (E. coli LEC001; [4]): > 128 µg/mL | Modal MIC (E. coli LEC001; shown in µM): > 63.8 µM

KCLTLRSLKKTLKFCASGRT-NH2 [X1-20a, novel amidated frog AMP derivative, Xenopus laevis]
Modal MIC (P. aeruginosa NCTC 13437; [4]): > 128 µg/mL | Modal MIC (P. aeruginosa NCTC 13437; shown in µM): > 55 µM | Modal MIC [1, 4]: > 128 µg/mL | Modal MIC ([1]; shown in µM): > 55 µM | Modal MIC (S. aureus (MRSA) USA300; [4]): > 128 µg/mL | Modal MIC (S. aureus (MRSA) USA300; shown in µM): > 55 µM | Modal MIC [2, 4]: 16 µg/mL | Modal MIC ([2]; shown in µM): 6.9 µM | Modal MIC50 (C. albicans NCPF 3281; [5]): > 128 µg/mL | Modal MIC90 (C. albicans NCPF 3281; [6]): > 128 µg/mL | Modal MIC50 (C. albicans NCPF 3281; shown in µM): > 55 µM | Modal MIC90 (C. albicans NCPF 3281; shown in µM): > 55 µM | Modal MIC50 [3, 5]: > 128 µg/mL | Modal MIC90 [3, 6]: > 128 µg/mL | Modal MIC50 ([3]; shown in µM): > 55 µM | Modal MIC90 ([3]; shown in µM): > 55 µM | Modal MIC50 (C. glabrata NCPF 8018; [5]): > 128 µg/mL | Modal MIC90 (C. glabrata NCPF 8018; [6]): > 128 µg/mL | Modal MIC50 (C. glabrata NCPF 8018; shown in µM): > 55 µM | Modal MIC90 (C. glabrata NCPF 8018; shown in µM): > 55 µM | Modal MIC50 (C. krusei NCPF 3876; [5]): 64 µg/mL | Modal MIC90 (C. krusei NCPF 3876; [6]): 64 µg/mL | Modal MIC50 (C. krusei NCPF 3876; shown in µM): 27.5 µM | Modal MIC90 (C. krusei NCPF 3876; shown in µM): 27.5 µM | Modal MIC50 (C. tropicalis NCPF 8760; [5]): 16 µg/mL | Modal MIC90 (C. tropicalis NCPF 8760; [6]): 32 µg/mL | Modal MIC50 (C. tropicalis NCPF 8760; shown in µM): 6.9 µM | Modal MIC90 (C. tropicalis NCPF 8760; shown in µM): 13.8 µM | Modal MIC (K. pneumoniae M6; [4]): 32 µg/mL | Modal MIC (K. pneumoniae M6; shown in µM): 13.8 µM | Modal MIC (K. pneumoniae NCTC 13368; [4]): 64 µg/mL | Modal MIC (K. pneumoniae NCTC 13368; shown in µM): 27.5 µM | Modal MIC50 (C. auris TDG 1912; shown in µM): > 55 µM | Modal MIC90 (C. auris TDG 1912; shown in µM): > 55 µM | Modal MIC (A. baumannii AYE; [4]): 16 µg/mL | Modal MIC (A. baumannii AYE; shown in µM): 6.9 µM | Modal MIC (A. baumannii ATCC 17978; [4]): 16 µg/mL | Modal MIC (A. baumannii ATCC 17978; shown in µM): 6.9 µM | Modal MIC (E. coli NCTC 12923; [7]): 8 µg/mL | Modal MIC (E. coli NCTC 12923; shown in µM): 3.4 µM | Modal MIC (E. coli LEC001; [4]): > 128 µg/mL | Modal MIC (E. coli LEC001; shown in µM): > 55 µM
